According to ChEMBL document CHEMBL4507283, “Data for DCP probe BI-1935” (2021):

Columns and labels:
[1] = molecular target: Serine/threonine-protein kinase SIK2 (Homo sapiens) (UniProt Q9H0K1); settings: Compound concentration 1000.0 nM
[2] = molecular target: Urotensin-2 receptor (Homo sapiens) (UniProt Q9UKP6); assay: UROTENSIN_II Eurofins-Panlabs selectivity data (BI); settings: Compound concentration 10.0 uM
[3] = molecular target: Mitogen-activated protein kinase 10 (Homo sapiens) (UniProt P53779); settings: Compound concentration 1000.0 nM
[4] = molecular target: Muscarinic acetylcholine receptor (Rattus norvegicus) (UniProt P08482+P08483+P08485+P08911+P10980); assay: MUSCARIN/NS Eurofins-Panlabs selectivity data (BI); assay type: protein assay; settings: Compound concentration 10.0 uM
[5] = molecular target: T1, Polyunsaturated fatty acid 5-lipoxygenase (Homo sapiens) (UniProt P09917); assay: 5LO Eurofins-Panlabs selectivity data (BI)
T1 sequence (whole entry): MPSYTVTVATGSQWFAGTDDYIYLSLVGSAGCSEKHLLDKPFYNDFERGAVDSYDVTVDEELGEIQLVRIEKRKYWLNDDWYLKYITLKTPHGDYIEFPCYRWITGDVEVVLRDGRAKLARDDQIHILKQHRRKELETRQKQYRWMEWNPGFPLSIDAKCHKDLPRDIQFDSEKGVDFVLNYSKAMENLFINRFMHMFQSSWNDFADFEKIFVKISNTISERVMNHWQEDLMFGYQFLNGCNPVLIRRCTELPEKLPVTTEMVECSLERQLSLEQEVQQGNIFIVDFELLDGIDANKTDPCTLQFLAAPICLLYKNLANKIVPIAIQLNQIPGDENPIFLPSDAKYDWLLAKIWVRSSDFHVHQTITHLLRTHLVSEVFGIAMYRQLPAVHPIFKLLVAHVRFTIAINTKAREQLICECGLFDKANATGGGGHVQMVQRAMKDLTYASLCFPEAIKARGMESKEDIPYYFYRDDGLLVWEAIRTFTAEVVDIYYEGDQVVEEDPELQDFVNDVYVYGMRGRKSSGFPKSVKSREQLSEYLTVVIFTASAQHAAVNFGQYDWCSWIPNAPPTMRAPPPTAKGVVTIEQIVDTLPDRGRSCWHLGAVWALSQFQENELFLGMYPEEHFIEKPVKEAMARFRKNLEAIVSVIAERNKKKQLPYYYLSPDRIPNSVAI

[6] = molecular target: Myosin light chain kinase (Homo sapiens) (UniProt Q32MK0); settings: Compound concentration 1000.0 nM
[7] = molecular target: Dual specificity mitogen-activated protein kinase kinase 1 (Homo sapiens) (UniProt Q02750); settings: Compound concentration 1000.0 nM
[8] = molecular target: Serine/threonine-protein kinase 26 (Homo sapiens) (UniProt Q9P289); settings: Compound concentration 1000.0 nM
[9] = molecular target: Serine/threonine-protein kinase Nek3 (Homo sapiens) (UniProt P51956); settings: Compound concentration 1000.0 nM
[10] = test system: Serine/threonine-protein kinase B-raf (Homo sapiens), P15056 [V600E]; settings: Compound concentration 1000.0 nM
[11] = molecular target: Homeodomain-interacting protein kinase 4 (Homo sapiens) (UniProt Q8NE63); settings: Compound concentration 1000.0 nM
[12] = molecular target: Bone morphogenetic protein receptor type-1A (Homo sapiens) (UniProt P36894); settings: Compound concentration 1000.0 nM
[13] = molecular target: Mitogen-activated protein kinase 1 (Homo sapiens) (UniProt P28482); settings: Compound concentration 1000.0 nM
[14] = molecular target: Dual serine/threonine and tyrosine protein kinase (Homo sapiens) (UniProt Q6XUX3); settings: Compound concentration 1000.0 nM
[15] = molecular target: Homeodomain-interacting protein kinase 3 (Homo sapiens) (UniProt Q9H422); settings: Compound concentration 1000.0 nM
[16] = molecular target: Voltage-dependent N-type calcium channel subunit alpha-1B (Rattus norvegicus) (UniProt Q02294); assay: CA+/N/RA Eurofins-Panlabs selectivity data (BI); settings: Compound concentration 10.0 uM
[17] = molecular target: Serine/threonine-protein kinase 25 (Homo sapiens) (UniProt O00506); settings: Compound concentration 1000.0 nM
[18] = test system: Phosphatidylinositol 4,5-bisphosphate 3-kinase catalytic subunit alpha isoform (Homo sapiens), P42336 [M1043I]; settings: Compound concentration 1000.0 nM
[19] = molecular target: Tyrosine-protein kinase Tec (Homo sapiens) (UniProt P42680); settings: Compound concentration 1000.0 nM
[20] = test system: Epidermal growth factor receptor (Homo sapiens), P00533 [UNDEFINED MUTATION]; settings: Compound concentration 1000.0 nM
[21] = molecular target: Serine/threonine-protein kinase VRK2 (Homo sapiens) (UniProt Q86Y07); settings: Compound concentration 1000.0 nM
[22] = molecular target: Mitogen-activated protein kinase kinase kinase 14 (Homo sapiens) (UniProt Q99558); settings: Compound concentration 1000.0 nM
[23] = molecular target: Serine/threonine-protein kinase PLK2 (Homo sapiens) (UniProt Q9NYY3); settings: Compound concentration 1000.0 nM
[24] = molecular target: Mitogen-activated protein kinase kinase kinase 9 (Homo sapiens) (UniProt P80192); settings: Compound concentration 1000.0 nM
[25] = molecular target: Sodium/potassium-transporting ATPase subunit alpha-1 (Sus scrofa) (UniProt P05024); assay: ATP NA+/K+PI Eurofins-Panlabs selectivity data (BI); settings: Compound concentration 10.0 uM
[26] = molecular target: Beta-2 adrenergic receptor (Homo sapiens) (UniProt P07550); settings: Compound concentration 10.0 uM
[27] = molecular target: Proto-oncogene tyrosine-protein kinase receptor Ret (Homo sapiens) (UniProt P07949); settings: Compound concentration 1000.0 nM
[28] = molecular target: NUAK family SNF1-like kinase 2 (Homo sapiens) (UniProt Q9H093); settings: Compound concentration 1000.0 nM
[29] = molecular target: Inhibitor of nuclear factor kappa-B kinase subunit alpha (Homo sapiens) (UniProt O15111); settings: Compound concentration 1000.0 nM
[30] = molecular target: Serine/threonine-protein kinase 16 (Homo sapiens) (UniProt O75716); settings: Compound concentration 1000.0 nM
[31] = molecular target: Mitogen-activated protein kinase kinase kinase kinase 3 (Homo sapiens) (UniProt Q8IVH8); settings: Compound concentration 1000.0 nM
[32] = molecular target: Serine/threonine-protein kinase DCLK3 (Homo sapiens) (UniProt Q9C098); settings: Compound concentration 1000.0 nM
[33] = test system: Tyrosine-protein kinase ABL1 (Homo sapiens), P00519 [H396P]; settings: Compound concentration 1000.0 nM
[34] = molecular target: Ephrin type-B receptor 4 (Homo sapiens) (UniProt P54760); settings: Compound concentration 1000.0 nM
Ephrin type-B receptor 4 (Homo sapiens), sequence (P54760 whole entry): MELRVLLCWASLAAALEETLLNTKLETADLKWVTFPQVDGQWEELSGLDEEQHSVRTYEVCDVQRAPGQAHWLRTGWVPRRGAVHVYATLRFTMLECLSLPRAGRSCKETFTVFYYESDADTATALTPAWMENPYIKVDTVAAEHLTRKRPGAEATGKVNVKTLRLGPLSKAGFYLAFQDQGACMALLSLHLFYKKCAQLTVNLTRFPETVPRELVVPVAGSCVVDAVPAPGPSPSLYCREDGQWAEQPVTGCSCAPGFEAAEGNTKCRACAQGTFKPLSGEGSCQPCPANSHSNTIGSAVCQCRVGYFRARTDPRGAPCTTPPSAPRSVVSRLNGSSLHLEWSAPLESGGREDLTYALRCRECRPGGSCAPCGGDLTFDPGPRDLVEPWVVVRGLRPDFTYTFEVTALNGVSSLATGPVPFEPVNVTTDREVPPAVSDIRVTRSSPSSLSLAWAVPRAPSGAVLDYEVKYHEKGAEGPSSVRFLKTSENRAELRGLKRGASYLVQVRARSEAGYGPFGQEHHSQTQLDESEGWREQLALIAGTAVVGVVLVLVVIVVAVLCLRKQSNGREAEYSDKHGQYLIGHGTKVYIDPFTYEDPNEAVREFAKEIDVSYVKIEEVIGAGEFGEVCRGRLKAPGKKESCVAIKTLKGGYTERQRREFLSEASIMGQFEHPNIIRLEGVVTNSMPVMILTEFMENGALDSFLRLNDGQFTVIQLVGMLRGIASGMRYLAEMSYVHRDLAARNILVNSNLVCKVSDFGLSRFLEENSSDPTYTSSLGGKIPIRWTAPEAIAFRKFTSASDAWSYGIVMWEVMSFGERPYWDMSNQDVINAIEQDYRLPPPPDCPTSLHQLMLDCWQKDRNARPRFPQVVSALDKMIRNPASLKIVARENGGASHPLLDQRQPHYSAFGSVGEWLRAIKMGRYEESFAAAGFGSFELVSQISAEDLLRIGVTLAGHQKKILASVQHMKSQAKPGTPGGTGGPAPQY

Bone morphogenetic protein receptor type-1A (Homo sapiens), sequence (P36894 whole entry): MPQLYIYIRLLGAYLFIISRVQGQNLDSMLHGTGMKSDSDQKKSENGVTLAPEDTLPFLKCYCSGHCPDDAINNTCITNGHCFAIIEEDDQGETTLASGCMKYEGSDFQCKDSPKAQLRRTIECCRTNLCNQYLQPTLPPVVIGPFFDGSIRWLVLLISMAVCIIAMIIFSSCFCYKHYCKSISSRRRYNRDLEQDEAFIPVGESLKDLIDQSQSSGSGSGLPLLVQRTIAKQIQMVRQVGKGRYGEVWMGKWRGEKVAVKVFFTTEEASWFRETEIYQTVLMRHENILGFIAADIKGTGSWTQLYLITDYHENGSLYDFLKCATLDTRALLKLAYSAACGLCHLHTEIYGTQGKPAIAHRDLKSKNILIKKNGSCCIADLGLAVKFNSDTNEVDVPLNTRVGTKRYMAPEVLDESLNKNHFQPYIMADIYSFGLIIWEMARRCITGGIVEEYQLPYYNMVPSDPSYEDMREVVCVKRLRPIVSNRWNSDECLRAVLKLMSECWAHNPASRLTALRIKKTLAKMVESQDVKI
Inhibitor of nuclear factor kappa-B kinase subunit alpha (Homo sapiens), sequence (O15111 whole entry): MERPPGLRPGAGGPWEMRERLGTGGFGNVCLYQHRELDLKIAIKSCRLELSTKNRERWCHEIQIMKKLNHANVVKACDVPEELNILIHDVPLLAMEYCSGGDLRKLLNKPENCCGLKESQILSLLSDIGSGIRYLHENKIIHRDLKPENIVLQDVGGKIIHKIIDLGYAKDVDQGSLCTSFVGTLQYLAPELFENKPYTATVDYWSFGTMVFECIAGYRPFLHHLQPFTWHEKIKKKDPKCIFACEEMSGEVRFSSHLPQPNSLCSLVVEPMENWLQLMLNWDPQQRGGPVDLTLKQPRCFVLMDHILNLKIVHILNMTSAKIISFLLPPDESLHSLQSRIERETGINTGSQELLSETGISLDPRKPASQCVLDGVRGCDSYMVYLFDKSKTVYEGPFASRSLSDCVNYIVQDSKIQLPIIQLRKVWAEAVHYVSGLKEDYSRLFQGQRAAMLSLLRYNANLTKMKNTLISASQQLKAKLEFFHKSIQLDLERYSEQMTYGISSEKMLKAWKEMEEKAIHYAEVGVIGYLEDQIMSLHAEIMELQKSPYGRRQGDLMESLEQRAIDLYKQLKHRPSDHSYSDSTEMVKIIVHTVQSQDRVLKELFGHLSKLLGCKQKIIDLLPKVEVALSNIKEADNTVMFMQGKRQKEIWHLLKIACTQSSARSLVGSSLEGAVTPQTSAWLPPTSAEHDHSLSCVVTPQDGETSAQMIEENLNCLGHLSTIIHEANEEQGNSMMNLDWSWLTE
Serine/threonine-protein kinase SIK2 (Homo sapiens), sequence (Q9H0K1 whole entry, looked up): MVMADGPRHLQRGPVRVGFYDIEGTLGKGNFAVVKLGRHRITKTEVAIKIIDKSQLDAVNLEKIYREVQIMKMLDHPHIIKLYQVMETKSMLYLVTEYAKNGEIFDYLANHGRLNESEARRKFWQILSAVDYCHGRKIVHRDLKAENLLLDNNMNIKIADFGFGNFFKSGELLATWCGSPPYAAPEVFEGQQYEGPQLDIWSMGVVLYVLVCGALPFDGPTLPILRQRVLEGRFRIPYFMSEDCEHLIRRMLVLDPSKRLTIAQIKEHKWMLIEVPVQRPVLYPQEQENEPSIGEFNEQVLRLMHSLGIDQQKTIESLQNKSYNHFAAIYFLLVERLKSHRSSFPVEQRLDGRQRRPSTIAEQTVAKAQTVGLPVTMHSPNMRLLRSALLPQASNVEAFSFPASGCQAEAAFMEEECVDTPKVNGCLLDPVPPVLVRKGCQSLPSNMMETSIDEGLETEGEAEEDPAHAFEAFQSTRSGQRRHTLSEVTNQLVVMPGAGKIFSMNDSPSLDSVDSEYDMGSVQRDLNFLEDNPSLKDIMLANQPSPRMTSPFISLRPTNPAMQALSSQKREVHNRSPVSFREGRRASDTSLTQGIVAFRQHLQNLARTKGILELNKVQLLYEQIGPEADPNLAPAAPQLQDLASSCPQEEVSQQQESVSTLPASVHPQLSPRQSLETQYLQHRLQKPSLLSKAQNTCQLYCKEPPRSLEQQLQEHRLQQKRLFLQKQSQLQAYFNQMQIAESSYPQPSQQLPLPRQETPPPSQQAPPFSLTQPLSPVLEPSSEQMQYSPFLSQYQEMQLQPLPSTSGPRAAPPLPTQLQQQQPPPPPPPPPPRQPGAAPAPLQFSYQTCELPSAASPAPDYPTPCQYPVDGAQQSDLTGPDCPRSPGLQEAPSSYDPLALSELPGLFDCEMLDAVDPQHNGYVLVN
Serine/threonine-protein kinase 16 (Homo sapiens), sequence (O75716 whole entry): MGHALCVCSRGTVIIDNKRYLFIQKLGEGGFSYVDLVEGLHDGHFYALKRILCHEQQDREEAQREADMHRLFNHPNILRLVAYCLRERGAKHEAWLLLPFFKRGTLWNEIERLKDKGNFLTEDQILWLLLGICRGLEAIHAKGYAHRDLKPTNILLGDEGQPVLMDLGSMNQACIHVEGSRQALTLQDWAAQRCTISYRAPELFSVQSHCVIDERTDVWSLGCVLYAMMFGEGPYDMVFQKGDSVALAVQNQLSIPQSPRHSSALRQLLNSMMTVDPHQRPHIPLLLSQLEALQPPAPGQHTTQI
Serine/threonine-protein kinase VRK2 (Homo sapiens), sequence (Q86Y07 whole entry): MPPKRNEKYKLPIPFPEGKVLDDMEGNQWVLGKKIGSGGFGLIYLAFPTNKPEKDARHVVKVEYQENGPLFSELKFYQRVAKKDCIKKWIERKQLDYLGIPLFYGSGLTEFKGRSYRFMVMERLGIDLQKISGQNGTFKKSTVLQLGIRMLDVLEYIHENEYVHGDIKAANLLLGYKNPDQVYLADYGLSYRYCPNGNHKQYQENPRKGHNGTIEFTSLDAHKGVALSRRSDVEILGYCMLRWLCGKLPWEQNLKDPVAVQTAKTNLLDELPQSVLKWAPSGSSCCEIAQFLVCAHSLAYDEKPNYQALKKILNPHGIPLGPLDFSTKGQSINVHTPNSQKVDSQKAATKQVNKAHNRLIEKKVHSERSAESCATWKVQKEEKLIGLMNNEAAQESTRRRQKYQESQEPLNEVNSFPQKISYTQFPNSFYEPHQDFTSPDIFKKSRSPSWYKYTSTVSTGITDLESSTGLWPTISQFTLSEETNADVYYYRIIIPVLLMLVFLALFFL
Serine/threonine-protein kinase 26 (Homo sapiens), sequence (Q9P289 2-416 limits assumed): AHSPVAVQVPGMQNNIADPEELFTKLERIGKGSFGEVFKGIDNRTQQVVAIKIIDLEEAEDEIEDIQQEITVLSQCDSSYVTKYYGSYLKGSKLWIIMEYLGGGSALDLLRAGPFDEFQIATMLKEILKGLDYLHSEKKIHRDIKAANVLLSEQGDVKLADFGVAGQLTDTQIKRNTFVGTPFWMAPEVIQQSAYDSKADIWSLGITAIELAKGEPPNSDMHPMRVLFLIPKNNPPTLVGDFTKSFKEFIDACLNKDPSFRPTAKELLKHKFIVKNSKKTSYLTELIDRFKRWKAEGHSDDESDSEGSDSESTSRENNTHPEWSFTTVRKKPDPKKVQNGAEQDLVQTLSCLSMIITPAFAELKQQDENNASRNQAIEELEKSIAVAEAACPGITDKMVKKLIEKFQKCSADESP
Mitogen-activated protein kinase 10 (Homo sapiens), sequence (P53779 whole entry): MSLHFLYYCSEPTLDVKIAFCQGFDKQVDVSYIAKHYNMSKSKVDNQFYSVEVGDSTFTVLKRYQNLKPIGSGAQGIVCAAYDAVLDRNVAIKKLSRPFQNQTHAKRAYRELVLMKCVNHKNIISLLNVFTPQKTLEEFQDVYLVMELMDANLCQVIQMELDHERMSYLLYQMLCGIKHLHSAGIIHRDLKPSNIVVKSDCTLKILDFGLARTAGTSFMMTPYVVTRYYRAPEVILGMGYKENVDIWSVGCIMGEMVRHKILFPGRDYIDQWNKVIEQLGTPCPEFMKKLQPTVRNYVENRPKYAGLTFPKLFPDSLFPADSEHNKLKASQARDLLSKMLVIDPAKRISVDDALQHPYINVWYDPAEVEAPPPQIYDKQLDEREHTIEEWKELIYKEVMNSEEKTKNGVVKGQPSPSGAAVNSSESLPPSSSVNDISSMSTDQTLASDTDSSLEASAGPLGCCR

`CCOCCn1cc(C(=O)Nc2ccc(-n3nc(-c4cccnc4)cc3C(F)(F)F)cn2)ccc1=O` [BI 1935] showed a residual activity [1] of 91%, a residual activity [2] of 97% and a residual activity [3] of 100%. The residual activity [4] was 112%, the residual activity ([5]; Compound concentration 0.3 uM) was 99% and the residual activity ([5]; Compound concentration 1.0 uM) was 88%. The residual activity ([5]; Compound concentration 3.0 uM) was 74%, the residual activity ([5]; Compound concentration 10.0 uM) was 27.5% and the residual activity ([5]; Compound concentration 30.0 uM) was 2%. The residual activity [6] was 97%, the residual activity [7] was 86% and the residual activity [8] was 81%. For the same compound, the residual activity [9] was 100%, the residual activity [10] was 97% and the residual activity [11] was 100%. For the same compound, the residual activity [12] was 70%, the residual activity [13] was 100% and the residual activity [14] was 61%. The residual activity [15] was 76%, the residual activity [16] was 102% and the residual activity [17] was 95%. For the same compound, the residual activity [18] was 100%, the residual activity [19] was 100% and the residual activity [20] was 96%. For the same compound, the residual activity [21] was 97%, the residual activity [22] was 69% and the residual activity [23] was 88%. It also gave a residual activity [24] of 93%, a residual activity [25] of 94% and an inhibition [26] of -1.17%. It also gave a residual activity [27] of 83%, a residual activity [28] of 73% and a residual activity [29] of 100%. For the same compound, the residual activity [30] was 92%, the residual activity [31] was 85% and the residual activity [32] was 100%. It also gave a residual activity [33] of 100% and a residual activity [34] of 100%.
